Test results as given in patent publication US12240813B2, “Deuterated tryptamine derivatives and methods of use” (priority 2020, dated 2025).

Legend:
[1] = target: T1, hrMAO-A (Homo sapiens, UniProt P21397); assay: Metabolic stability in the presence of hrMAO-A; type: in vitro ADME; details: for MAO (metabolized or not) / MAO, % (half-life as % vs. the related nondeuterated compound): MAO-A; for MAO (metabolized or not): last assay time point 120 min; for % Remaining of Initial, 0 min / % Remaining of Initial, 5 min / % Remaining of Initial, 10 min / % Remaining of Initial, 20 min / % Remaining of Initial, 30 min / % Remaining of Initial, 60 min / % Remaining of Initial, 120 min / CLint / Half-life: hrMAO-A; for CLint: Table 3; for MAO, % (half-life as % vs. the related nondeuterated compound): values in square brackets are within 10% difference (assay's accuracy), no deuteration effect
T1 construct: purchased XenoTech Lot #8213001
T1 sequence (P21397 1-527): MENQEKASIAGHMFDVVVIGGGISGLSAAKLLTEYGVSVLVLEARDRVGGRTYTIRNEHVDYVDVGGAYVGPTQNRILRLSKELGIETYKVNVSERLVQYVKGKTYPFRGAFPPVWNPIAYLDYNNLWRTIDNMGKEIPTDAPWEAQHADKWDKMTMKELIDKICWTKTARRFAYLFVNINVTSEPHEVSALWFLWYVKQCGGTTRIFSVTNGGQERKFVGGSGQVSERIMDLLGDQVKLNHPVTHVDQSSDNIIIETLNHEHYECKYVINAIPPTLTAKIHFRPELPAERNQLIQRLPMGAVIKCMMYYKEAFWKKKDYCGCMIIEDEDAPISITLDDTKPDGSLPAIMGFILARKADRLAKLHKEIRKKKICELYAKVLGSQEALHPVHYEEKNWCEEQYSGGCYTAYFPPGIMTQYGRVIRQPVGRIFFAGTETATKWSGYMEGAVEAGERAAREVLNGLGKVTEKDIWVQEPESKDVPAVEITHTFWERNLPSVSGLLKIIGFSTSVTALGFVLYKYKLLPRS
Procedure: The reaction mixture was prepared as described below. The co-dosed TAs were added into the reaction mixture at a final concentration of 1 microM each. The positive control, kynuramine (25 microM), was run simultaneously with the TAs in a separate reaction. The reaction mixture (without TAs or kynuramine) was equilibrated in a shaking water bath at 37° C. for 5 minutes. The reaction was initiated by the addition of the TAs or kynuramine, and the mixture was incubated in a shaking water bath at 37° C. Aliquots (100 microL) of the TA reaction mixture were withdrawn at 0, 5, 10, 20, 30, 60, and 120 minutes. Aliquots (100 microL) of the positive control reaction mixture were withdrawn at 0 and 30 minutes. TA and kynuramine samples were immediately combined with 100 microL of ice-cold 100% MeCN containing 0.1% formic acid and IS to terminate the reaction. The samples were then mixed and centrifuged to precipitate proteins. All TA samples were assayed by LC-HRAMS. The PARR (analyte to IS) at each time point was compared to the PARR at time 0 to determine the percent remaining at each time point. Reaction composition: hrMAO 0.02 mg/mL; Potassium Phosphate, pH 7.4 100 mM; Magnesium Chloride 5 mM; Test Articles (each) 1 microM.

[2] = tested on: rat liver microsomes; assay: Metabolic stability in rat liver microsomes (RLM); details: for RLM (metabolized or not): last assay time point 120 min; for RLM (metabolized or not) / % Remaining of Initial, 0 min / % Remaining of Initial, 5 min / % Remaining of Initial, 10 min / % Remaining of Initial, 20 min / % Remaining of Initial, 30 min / % Remaining of Initial, 60 min / % Remaining of Initial, 120 min / RLM, % (half-life as % vs. the related nondeuterated compound): RLM; for RLM, % (half-life as % vs. the related nondeuterated compound): values in square brackets are within 10% difference (assay's accuracy), no deuteration effect
[3] = Table 5, d8 and d10 analogs of DMT
[4] = Table 4, d8 and d10 analogs of DMT

## CN(C)CCc1c[nH]c2ccc(O)cc12 [reference compound]
[1]
  MAO (metabolized or not): R
[2]
  RLM (metabolized or not): R

## CN(C)CCc1c[nH]c2ccccc12 [DMT, reference compound]
[1]; Table 3, four test articles
  % Remaining of Initial, 0 min: 100%
  % Remaining of Initial, 5 min: 96.3%
  % Remaining of Initial, 10 min: 90.7%
  % Remaining of Initial, 20 min: 64.8%
  % Remaining of Initial, 30 min: 49.4%
  % Remaining of Initial, 60 min: 18.1%
  % Remaining of Initial, 120 min: 3.95%
  Half-life: 0.453 h
[1]
  CLint: 0.638 mL/min/mg protein
[2]; Table 2, four test articles
  % Remaining of Initial, 0 min: 100%
  % Remaining of Initial, 5 min: 65.2%
  % Remaining of Initial, 10 min: 52.2%
  % Remaining of Initial, 20 min: 41.0%
  % Remaining of Initial, 30 min: 33.2%
  % Remaining of Initial, 60 min: 17.4%
  % Remaining of Initial, 120 min: 4.07%

## CCN(C)CCc1c[nH]c2ccc(OC)cc12 [reference compound]
[1]
  MAO (metabolized or not): R
[2]
  RLM (metabolized or not): R

## [2H]C([2H])(Cc1c[nH]c2ccccc12)NCC
[1]
  MAO, % (half-life as % vs. the related nondeuterated compound): 145%
[2]
  RLM, % (half-life as % vs. the related nondeuterated compound): 138%

## [2H]C([2H])([2H])NC([2H])([2H])Cc1c[nH]c2cccc(O)c12
[1]
  MAO, % (half-life as % vs. the related nondeuterated compound): 466%
[2]
  RLM, % (half-life as % vs. the related nondeuterated compound): 163%

## [2H]C([2H])(Cc1c[nH]c2ccccc12)N(C)C [DMT-d2]
[1]; Table 3, four test articles
  % Remaining of Initial, 0 min: 100%
  % Remaining of Initial, 5 min: 106%
  % Remaining of Initial, 10 min: 111%
  % Remaining of Initial, 20 min: 101%
  % Remaining of Initial, 30 min: 97.5%
  % Remaining of Initial, 60 min: 76.0%
  % Remaining of Initial, 120 min: 59.1%
  Half-life: > 2 h
[1]
  CLint: 0.126 mL/min/mg protein
[2]; Table 2, four test articles
  % Remaining of Initial, 0 min: 100%
  % Remaining of Initial, 5 min: 67.5%
  % Remaining of Initial, 10 min: 56.6%
  % Remaining of Initial, 20 min: 48.8%
  % Remaining of Initial, 30 min: 43.3%
  % Remaining of Initial, 60 min: 32.0%
  % Remaining of Initial, 120 min: 21.5%

## [2H]C([2H])([2H])N(C([2H])([2H])[2H])C([2H])([2H])C([2H])([2H])c1c[nH]c2ccccc12 [DMT-d10]
[1]; MAO-A enzymatic assay
  stability in the MAO-A enzymatic assay: superiority
[1]; Table 3, four test articles
  % Remaining of Initial, 0 min: 100%
  % Remaining of Initial, 5 min: 107%
  % Remaining of Initial, 10 min: 112%
  % Remaining of Initial, 20 min: 103%
  % Remaining of Initial, 30 min: 101%
  % Remaining of Initial, 60 min: 82.2%
  % Remaining of Initial, 120 min: 68.6%
  Half-life: > 2 h
[1]; [3]
  % Remaining of Initial, 0 min: 100.0%
  % Remaining of Initial, 5 min: 99.0%
  % Remaining of Initial, 10 min: 94.9%
  % Remaining of Initial, 20 min: 95.4%
  % Remaining of Initial, 30 min: 91.4%
  % Remaining of Initial, 60 min: 81.5%
  % Remaining of Initial, 120 min: 65.8%
  Half-life: > 2 h
[2]; Table 2, four test articles
  % Remaining of Initial, 0 min: 100%
  % Remaining of Initial, 5 min: 72.5%
  % Remaining of Initial, 10 min: 62.2%
  % Remaining of Initial, 20 min: 55.2%
  % Remaining of Initial, 30 min: 50.9%
  % Remaining of Initial, 60 min: 39.6%
  % Remaining of Initial, 120 min: 29.4%
[2]; [4]
  % Remaining of Initial, 0 min: 100%
  % Remaining of Initial, 5 min: 69.3%
  % Remaining of Initial, 10 min: 56.0%
  % Remaining of Initial, 20 min: 44.9%
  % Remaining of Initial, 30 min: 39.3%
  % Remaining of Initial, 60 min: 30.5%
  % Remaining of Initial, 120 min: 23.6%
[2]; rat liver microsomes, compared with DMT-α,α-d2 and DMT-α,α,β,β-d4
  metabolic stability: Further enhancement of metabolic stability

## [2H]c1[nH]c2c([2H])c([2H])c([2H])c([2H])c2c1CCN(C)C
[1]
  MAO, % (half-life as % vs. the related nondeuterated compound): [103] %
[2]
  RLM, % (half-life as % vs. the related nondeuterated compound): [106] %

## [2H]c1[nH]c2c([2H])c([2H])c([2H])c([2H])c2c1C([2H])([2H])C([2H])([2H])N(C)C
[1]
  MAO, % (half-life as % vs. the related nondeuterated compound): 551%
[2]
  RLM, % (half-life as % vs. the related nondeuterated compound): 243%

## [2H]C([2H])([2H])C([2H])([2H])NC([2H])([2H])C([2H])([2H])c1c[nH]c2ccccc12
[1]
  MAO, % (half-life as % vs. the related nondeuterated compound): 166%
[2]
  RLM, % (half-life as % vs. the related nondeuterated compound): 159%

## [2H]C([2H])([2H])Oc1ccc2[nH]cc(CCN(C)C)c2c1
[1]
  MAO, % (half-life as % vs. the related nondeuterated compound): [109] %
[2]
  RLM, % (half-life as % vs. the related nondeuterated compound): 151%

## COc1ccc2[nH]cc(CCN(C)C)c2c1 [5-MeO-DMT, reference compound]
[1]
  MAO (metabolized or not): R
[2]
  RLM (metabolized or not): R

## CNCCc1c[nH]c2ccccc12 [reference compound]
[1]
  MAO (metabolized or not): R
[2]
  RLM (metabolized or not): R

## CCN(C)CCc1c[nH]c2ccccc12 [reference compound]
[1]
  MAO (metabolized or not): R
[2]
  RLM (metabolized or not): R

## CCN(C)CCc1c[nH]c2ccc(O)cc12 [reference compound]
[1]
  MAO (metabolized or not): R
[2]
  RLM (metabolized or not): R

## CCNCCc1c[nH]c2ccccc12 [reference compound]
[1]
  MAO (metabolized or not): R
[2]
  RLM (metabolized or not): R

## [2H]C([2H])([2H])NC([2H])([2H])C([2H])([2H])c1c[nH]c2cccc(O)c12
[1]
  MAO, % (half-life as % vs. the related nondeuterated compound): 459%
[2]
  RLM, % (half-life as % vs. the related nondeuterated compound): 173%

## [2H]C([2H])(c1c[nH]c2ccc(O)cc12)C([2H])([2H])N(C)C
[1]
  MAO, % (half-life as % vs. the related nondeuterated compound): 418%
[2]
  RLM, % (half-life as % vs. the related nondeuterated compound): 136%

## [2H]C([2H])(NCC)C([2H])([2H])c1c[nH]c2ccccc12
[1]
  MAO, % (half-life as % vs. the related nondeuterated compound): 140%
[2]
  RLM, % (half-life as % vs. the related nondeuterated compound): 142%

## [2H]C([2H])(c1c[nH]c2cccc(OC)c12)C([2H])([2H])N(C)C
[1]
  MAO, % (half-life as % vs. the related nondeuterated compound): 325%
[2]
  RLM, % (half-life as % vs. the related nondeuterated compound): 190%

## [2H]C([2H])(Cc1c[nH]c2cccc(O)c12)NC
[1]
  MAO, % (half-life as % vs. the related nondeuterated compound): 395%
[2]
  RLM, % (half-life as % vs. the related nondeuterated compound): 154%

## [2H]C([2H])(Cc1c[nH]c2ccc(O)cc12)N(C)CC
[1]
  MAO, % (half-life as % vs. the related nondeuterated compound): 173%
[2]
  RLM, % (half-life as % vs. the related nondeuterated compound): 132%

## CNCCc1c[nH]c2cccc(O)c12 [reference compound]
[1]
  MAO (metabolized or not): R
[2]
  RLM (metabolized or not): R

## [2H]C([2H])(c1c[nH]c2cccc(OC)c12)C([2H])([2H])N(C)CC
[1]
  MAO, % (half-life as % vs. the related nondeuterated compound): 291%
[2]
  RLM, % (half-life as % vs. the related nondeuterated compound): 161%
